Measured values as given in US8524917B2, “6-substituted indole-3-carboxylic acid amide compounds having sphingosine-1-phosphate (S1P) receptor antagonist biological activity” (Allergan, Inc., priority 2007, dated 2013).
pIC50: −log10 of the molar value. Like-named read-outs stand apart in the source and are kept apart here.

Target: human S1P3 receptor (Homo sapiens (Human), UniProt Q99500)
Experiment: Activation or block of activation of human S1P3 receptor, Ca+2 FLIPR assay
Type: cell-based
Protocol: Compounds were assessed for their ability to activate or block activation of the human S1P3 receptor in T24 cells stably expressing the human S1P3 receptor. Ten thousand cells/well were plated into 384-well poly-D-lysine coated plates one day prior to use. The growth media for the S1P3 receptor expressing cell line was McCoy's 5A medium supplemented with 10% charcoal-treated fetal bovine serum (FBS), 1% antibiotic-antimycotic and 400 μg/ml geneticin. On the day of the experiment, the cells were washed twice with Hank's Balanced Salt Solution supplemented with 20 mM HEPES (HBSS/Hepes buffer). […] Extracellular dye was removed by washing the cell plates four times prior to placing the plates in the FLIPR (Fluorometric Imaging Plate Reader, Molecular Devices). Ligands were diluted in HBSS/Hepes buffer and prepared in 384-well microplates. The positive control, Sphingosine-1-Phosphate (S1P), was diluted in HBSS/Hepes buffer with 4 mg/ml fatty acid free bovine serum albumin. The FLIPR transferred 12.5 μl from the ligand microplate to the cell plate and took fluorescent measurements for 75 seconds, taking readings every second, and then for 2.5 minutes, taking readings every 10 seconds. […] IC50 values were determined through a […] analysis using the Levenburg Marquardt algorithm.

[1] = T24 cells stably expressing the human S1P3 receptor, FLIPR Ca+2 response, 0.61 nM to 10,000 nM, read-out: S1P3 IC50
[2] = T24 cells stably expressing the human S1P3 receptor, value in brackets

human S1P3 receptor, sequence (Q99500 whole entry): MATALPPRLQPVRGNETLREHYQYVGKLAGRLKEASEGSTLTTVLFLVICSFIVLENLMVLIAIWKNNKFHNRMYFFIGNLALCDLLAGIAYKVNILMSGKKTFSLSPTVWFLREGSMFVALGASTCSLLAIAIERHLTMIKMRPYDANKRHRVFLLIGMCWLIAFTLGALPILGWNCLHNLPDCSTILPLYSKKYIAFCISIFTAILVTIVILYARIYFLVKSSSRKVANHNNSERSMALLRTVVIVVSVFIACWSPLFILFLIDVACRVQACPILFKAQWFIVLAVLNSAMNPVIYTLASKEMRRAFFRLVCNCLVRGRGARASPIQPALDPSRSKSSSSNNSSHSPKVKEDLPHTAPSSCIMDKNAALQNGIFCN

With `CC(=NO)c1c(C(=O)NCc2ccc(F)c(F)c2)c2ccc(OC(C)C)cc2n1Cc1ccccn1` (stereo in doubt) [Compound 110, (E)-N-(3,4-Difluorobenzyl)-2-(1-(hydroxyimino)ethyl)-6-isopropoxy-1-(pyridin-2-ylmethyl)-1H-indole-3-carboxamide] the pIC50 was 6.42 and the “S1P3 (% inh)” value was 384 nM (100) %.

`CC(C)c1c(C(=O)NCc2ccc(F)c(F)c2)c2ccc(OC3CCCC3)cc2n1Cc1ncco1` [Compound 211, 6-(Cyclopentyloxy)-N-(3,4-difluorobenzyl)-2-isopropyl-1-(oxazol-2-ylmethyl)-1H-indole-3-carboxamide] was tested, and the pIC50 [1] was 8.00 and the “S1P3 (% inh)” value [2] was 100%.

In the case of `Cc1cc(Cn2c(C(C)C)c(C(=O)NCc3ccc(F)c(F)c3)c3ccc(O)cc32)no1` [Compound 218, N-(3,4-Difluorobenzyl)-6-hydroxy-2-isopropyl-1-((5-methylisoxazol-3-yl)methyl)-1H-indole-3-carboxamide], the pIC50 [1] was 5.27 and the “S1P3 (% inh)” value [2] was 67%.

For `CC(C)c1c(C(=O)NCc2ccc(F)c(F)c2)c2ccc(N3CCCC3=O)cc2n1Cc1ccccc1` [Compound 128, 1-Benzyl-N-(3,4-difluorobenzyl)-2-isopropyl-6-(2-oxopyrrolidin-1-yl)-1H-indole-3-carboxamide], the pIC50 [1] was 6.30 and the “S1P3 (% inh)” value [2] was 99%.

With `CC(C)CO/N=C/c1ccc2c(C(=O)NCc3ccc(F)c(F)c3)c(C(C)C)n(Cc3ccccc3)c2c1` the pIC50 [1] was 7.06 and the “S1P3 (% inh)” value [2] was 100%.

In the case of `CC(C)c1c(C(=O)NCc2ccc(F)c(F)c2)c2ccc(CN3CCCC3)cc2n1Cc1ccccc1`, the pIC50 [1] was 6.44 and the “S1P3 (% inh)” value [2] was 93%.

`CCO/N=C(\C)c1ccc2c(C(=O)NCc3ccc(F)c(F)c3)c(C(C)C)n(Cc3ccccc3)c2c1` was tested, and the pIC50 [1] was 6.58 and the “S1P3 (% inh)” value [2] was 98%.

In the case of `CCNC(=O)c1ccc2c(C(=O)NCc3ccc(F)c(F)c3)c(C(C)C)n(Cc3ccccc3)c2c1`, the pIC50 [1] was 6.46 and the “S1P3 (% inh)” value [2] was 99%.

In the case of `CC(C)c1c(C(=O)NCc2ccc(F)c(F)c2)c2ccc(OC3CCNC3)cc2n1Cc1ccccc1` (stereo not drawn), the pIC50 [1] was 5.62 and the “S1P3 (% inh)” value [2] was 80%.

In the case of `CC(C)c1c(C(=O)NCc2ccc(F)c(F)c2)c2ccc(NC3CCC3)cc2n1Cc1ccccn1` [Compound 197, 6-(Cyclobutylamino)-N-(3,4-difluorobenzyl)-2-isopropyl-1-(pyridin-2-ylmethyl)-1H-indole-3-carboxamide], the pIC50 [1] was 7.17 and the “S1P3 (% inh)” value [2] was 100%.

In the case of `CC(C)c1c(C(=O)NCc2cncc(F)c2)c2ccc(OC3CCCC3)cc2n1Cc1ccccn1` [Compound 148, 6-(Cyclopentyloxy)-N-((5-fluoropyridin-3-yl)methyl)-2-isopropyl-1-(pyridin-2-ylmethyl)-1H-indole-3-carboxamide], the “S1P3 (% inh)” value was 13 nM (100) % and the pIC50 (read-out: S1P3 IC50) was 7.89.

With `CC(=O)c1c(C(=O)NCc2ccc(F)c(F)c2)c2ccc(OC(C)C)cc2n1Cc1ccccn1` [Compound 109, 2-Acetyl-N-(3,4-difluorobenzyl)-6-isopropoxy-1-(pyridin-2-ylmethyl)-1H-indole-3-carboxamide] the pIC50 [1] was 7.68 and the “S1P3 (% inh)” value [2] was 99%.

In the case of `CC(C)c1c(C(=O)NCc2ccc(F)c(F)c2)c2ccc(OC3CCOCC3)cc2n1Cc1ccccn1` [Compound 143, N-(3,4-Difluorobenzyl)-2-isopropyl-1-(pyridin-2-ylmethyl)-6-(tetrahydro-2H-pyran-4-yloxy)-1H-indole-3-carboxamide], the pIC50 [1] was 7.44 and the “S1P3 (% inh)” value [2] was 99%.

`CCOC(=O)c1ccc2c(C(=O)NCc3ccc(F)c(F)c3)c(C(C)C)n(Cc3cccnc3)c2c1` [Compound 46, Ethyl 3-(3,4-Difluorobenzylcarbamoyl)-2-isopropyl-1-(pyridin-3-ylmethyl)-1H-indole-6-carboxylate] was tested, and the “S1P3 (% inh)” value was 241 nM (100) % and the pIC50 (read-out: S1P3 IC50) was 6.62.

For `CCO/N=C/c1ccc2c(C(=O)NCc3ccc(F)c(F)c3)c(C(C)C)n(Cc3ccccc3)c2c1`, the pIC50 [1] was 6.84 and the “S1P3 (% inh)” value [2] was 99%.

With `CC(C)c1c(C(=O)NCc2ccc(F)c(F)c2)c2ccc(NC3CCC3)cc2n1Cc1ccccc1` [Compound 190, 1-Benzyl-6-(cyclobutylamino)-N-(3,4-difluorobenzyl)-2-isopropyl-1H-indole-3-carboxamide] the “S1P3 (% inh)” value was 13 nM (100) % and the pIC50 (read-out: S1P3 IC50) was 7.89.

With `CCOC(=O)c1ccc2c(C(=O)NCc3ccc(F)c(F)c3)c(C(C)C)n(Cc3ncco3)c2c1` [Compound 47, Ethyl 3-(3,4-Difluorobenzylcarbamoyl)-2-isopropyl-1-(oxazol-2-ylmethyl)-1H-indole-6-carboxylate] the pIC50 [1] was 6.46 and the “S1P3 (% inh)” value [2] was 100%.

In the case of `CC(C)c1c(C(=O)NCc2ccc(F)c(F)c2)c2ccc(Oc3nccs3)cc2n1Cc1cccnc1` [Compound 152, N-(3,4-Difluorobenzyl)-2-isopropyl-1-(pyridin-3-ylmethyl)-6-(thiazol-2-yloxy)-1H-indole-3-carboxamide], the pIC50 [1] was 7.77 and the “S1P3 (% inh)” value [2] was 97%.

For `CC(C)c1c(C(=O)NCc2ccc(F)cc2)c2ccc(NC3CCCC3)cc2n1Cc1ccccc1` [Compound 192, 1-Benzyl-6-(cyclopentylamino)-N-(4-fluorobenzyl)-2-isopropyl-1H-indole-3-carboxamide], the “S1P3 (% inh)” value was 70 nM (100) % and the pIC50 (read-out: S1P3 IC50) was 7.15.

For `CO/N=C(\C)c1ccc2c(C(=O)NCc3ccc(F)c(F)c3)c(C(C)C)n(Cc3ccccc3)c2c1`, the pIC50 was 6.83 and the “S1P3 (% inh)” value was 147 nM (100) %.

With `CC(C)c1c(C(=O)NCc2ccc(F)c(F)c2)c2ccc(OC3CCCO3)cc2n1Cc1ccccc1` (stereo not drawn) [Compound 27, 1-Benzyl-N-(3,4-difluorobenzyl)-2-isopropyl-6-(tetrahydrofuran-2-yloxy)-1H-indole-3-carboxamide] the Kb was 11 nM, the “S1P3 (% inh)” value was 6 nM (100) 11 nM % and the pIC50 (read-out: S1P3 IC50) was 8.22.

In the case of `CC(C)COc1ccc2c(C(=O)NCc3cccnc3)c(C(C)C)n(Cc3ccccn3)c2c1`, the pIC50 was 6.91 and the “S1P3 (% inh)” value was 124 nM (99) %.

With `CC(C)c1c(C(=O)NCc2ccc(F)c(F)c2)c2ccc(C(=O)N(C)C)cc2n1Cc1ccccc1` the pIC50 [1] was 6.71 and the “S1P3 (% inh)” value [2] was 100%.

`COC(=O)c1c(C(=O)NCc2ccc(F)c(F)c2)c2ccc(OC(C)C)cc2n1Cc1ccccn1` [Compound 226, Methyl 3-(3,4-Difluorobenzylcarbamoyl)-6-isopropoxy-1-(pyridin-2-ylmethyl)-1H-indole-2-carboxylate] was tested, and the pIC50 [1] was 7.06 and the “S1P3 (% inh)” value [2] was 100%.

With `CC(C)Oc1ccc2c(C(=O)NCc3ccc(F)c(F)c3)c(C(C)C)n(Cc3cccnc3)c2c1` [Compound 154, N-(3,4-Difluorobenzyl)-6-isopropoxy-2-isopropyl-1-(pyridin-3-ylmethyl)-1H-indole-3-carboxamide] the pIC50 [1] was 7.82 and the “S1P3 (% inh)” value [2] was 100%.

In the case of `CO/N=C/c1ccc2c(C(=O)NCc3ccc(F)c(F)c3)c(C(C)C)n(Cc3ccccn3)c2c1`, the pIC50 [1] was 6.86 and the “S1P3 (% inh)” value [2] was 100%.

In the case of `CCOC(=O)c1ccc2c(C(=O)NCc3ccc(F)cc3)c(C(C)C)n(Cc3ccccn3)c2c1` [Compound 50, Ethyl 3-(4-Fluorobenzylcarbamoyl)-2-isopropyl-1-(pyridin-2-ylmethyl)-1H-indole-6-carboxylate], the pIC50 [1] was 7.16 and the “S1P3 (% inh)” value [2] was 100%.

`CC(C)c1c(C(=O)NCc2ccc(F)c(F)c2)c2ccc(Oc3nccs3)cc2n1Cc1ncco1` [Compound 214, N-(3,4-Difluorobenzyl)-2-isopropyl-1-(oxazol-2-ylmethyl)-6-(thiazol-2-yloxy)-1H-indole-3-carboxamide] was tested, and the pIC50 [1] was 7.28 and the “S1P3 (% inh)” value [2] was 100%.

In the case of `CC(C)c1c(C(=O)NCc2ccc(F)c(F)c2)c2ccc(OC3CCCC3)cc2n1Cc1ccccc1` [Compound 16, 1-Benzyl-6-(cyclopentoxy)-N-(3,4-difluorobenzyl)-2-isopropyl-1H-indole-3-carboxamide], the Kb was 1.2 nM, the “S1P3 (% inh)” value was 3 nM (100) 1.2 nM % and the pIC50 (read-out: S1P3 IC50) was 8.52.

For `CC(C)c1c(C(=O)NCc2ccc(F)c(F)c2)c2ccc(OC3CCCC3)cc2n1Cc1ccccn1`, the pIC50 [1] was 8.52, the Kb (T24 cells stably expressing the human S1P3 receptor, second concentration in the cell, read-out: S1P3 Kb) was 4 nM and the “S1P3 (% inh)” value [2] was 100%.

In the case of `CC(C)COC(=O)c1ccc2c(C(=O)NCc3ccc(F)c(F)c3)c(C(C)C)n(Cc3ccccc3)c2c1`, the pIC50 was 7.92 and the “S1P3 (% inh)” value [2] was 12 nM (97) %.

`CCCCOC(=O)c1ccc2c(C(=O)NCc3ccc(F)c(F)c3)c(C(C)C)n(Cc3ccccc3)c2c1` was tested, and the pIC50 [1] was 8.40 and the “S1P3 (% inh)” value [2] was 97%.

`CC(C)Oc1ccc2c(C(=O)NCc3ccc(F)c(F)c3)c(C(C)O)n(Cc3ccccn3)c2c1` (stereo not drawn) [Compound 108, N-(3,4-Difluorobenzyl)-2-(1-hydroxyethyl)-6-isopropoxy-1-(pyridin-2-ylmethyl)-1H-indole-3-carboxamide] was tested, and the pIC50 [1] was 7.82 and the “S1P3 (% inh)” value [2] was 98%.

With `CO/N=C/c1ccc2c(C(=O)NCc3ccc(F)c(F)c3)c(C(C)C)n(Cc3ccccc3)c2c1` the pIC50 [1] was 7.68 and the “S1P3 (% inh)” value [2] was 99%.

For `CC(C)c1c(C(=O)NCc2ccc(F)c(F)c2)c2ccc(C(=O)N3CCCC3)cc2n1Cc1ccccc1`, the pIC50 was 6.77 and the “S1P3 (% inh)” value [2] was 170 nM (100) %.

In the case of `CC(C)c1c(C(=O)NCc2ccc(F)c(F)c2)c2ccc([N+](=O)[O-])cc2n1Cc1ccccc1` [Compound 124, 1-Benzyl-N-(3,4-difluorobenzyl)-2-isopropyl-6-nitro-1H-indole-3-carboxamide], the “S1P3 (% inh)” value was 242 nM (90) % and the pIC50 (read-out: S1P3 IC50) was 6.62.
